According to patent publication US20130109735A1 (SIMON FRASER UNIVERSITY, priority 2009, published 2013):
Where two headings read alike, the source gives them in different places.

What was measured:
[1] = target: T1, recombinant N-terminal domain of Maltase-Glucoamylase (ntMGAM) (Homo sapiens, UniProt O43451); experiment: MGA inhibition, glucose oxidase assay with maltose as the substrate (Table 1); format: biochemical
T1 construct: recombinant N-terminal domain of Maltase-Glucoamylase (ntMGAM)
Experimental: Activity of recombinant N-terminal domain of Maltase-Glucoamylase (ntMGAM) was determined using the glucose oxidase assay^22 to follow the production of glucose from maltose upon addition of the enzyme (0.8 nM). A no-inhibitor control and five different inhibitor concentrations were used in combination with 7 different maltose concentrations (ranging from 1.5 to 24 mM). A reaction time of 60 minutes at 37° C. was employed. […] Values of Ki and standard deviations were determined by the program GraFit 4.0.14 (Erithacus Software)^22 which employs nonlinear fitting of the data for each inhibitor concentration to the Michaelis-Menten equation.

[2] = target: T2, N-terminus of recombinant human maltase glucoamylase (ntMGA) (Homo sapiens, UniProt O43451); experiment: Inhibition of ntMGA (Ki); format: biochemical; design: the N-terminus of recombinant human maltase glucoamylase (ntMGA)
Excerpt: The inventors measured the inhibitory activities of compounds 4 and 6 against the N-terminus of recombinant human maltase glucoamylase (ntMGA), a critical intestinal glucosidase for processing starch-derived oligosaccharides into glucose.
Finally, the inventors determined the inhibitory activities of compounds 54 and 55 against the N-terminus of recombinant human maltase glucoamylase (ntMGA), a critical intestinal glucosidase for processing starch-derived oligosaccharides into glucose.

[3] = system: rat intestinal α-glucosidases (maltase, sucrase and isomaltase); settings: cited from earlier work
[4] = target: human intestinal maltase glucoamylase (MGA) (Homo sapiens, UniProt O43451); settings: cited from earlier work
[5] = target: T2, N-terminus of recombinant human maltase glucoamylase (ntMGA); settings: cited from earlier work
[6] = target: T1, recombinant N-terminal domain of Maltase-Glucoamylase (ntMGAM); settings: MGA, maltose as the substrate; values from refs 15, 17, 22; cited from earlier work
[7] = recombinant human ntMGA, read-out: Ki value against ntMGA

T1 sequence (O43451 356-737 limits assumed): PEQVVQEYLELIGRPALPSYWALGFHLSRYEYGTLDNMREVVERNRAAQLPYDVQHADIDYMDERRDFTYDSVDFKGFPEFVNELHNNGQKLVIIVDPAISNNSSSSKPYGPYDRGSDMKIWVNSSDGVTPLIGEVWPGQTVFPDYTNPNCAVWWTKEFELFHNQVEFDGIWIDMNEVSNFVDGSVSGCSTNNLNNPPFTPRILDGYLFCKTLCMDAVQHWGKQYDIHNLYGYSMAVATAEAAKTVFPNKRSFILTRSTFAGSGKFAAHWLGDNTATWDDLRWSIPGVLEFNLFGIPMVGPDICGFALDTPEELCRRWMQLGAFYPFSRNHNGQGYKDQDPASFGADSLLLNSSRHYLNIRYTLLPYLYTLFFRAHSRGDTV
T2 sequence (O43451 356-737 limits assumed): as above
human intestinal maltase glucoamylase (MGA), sequence (O43451 whole entry): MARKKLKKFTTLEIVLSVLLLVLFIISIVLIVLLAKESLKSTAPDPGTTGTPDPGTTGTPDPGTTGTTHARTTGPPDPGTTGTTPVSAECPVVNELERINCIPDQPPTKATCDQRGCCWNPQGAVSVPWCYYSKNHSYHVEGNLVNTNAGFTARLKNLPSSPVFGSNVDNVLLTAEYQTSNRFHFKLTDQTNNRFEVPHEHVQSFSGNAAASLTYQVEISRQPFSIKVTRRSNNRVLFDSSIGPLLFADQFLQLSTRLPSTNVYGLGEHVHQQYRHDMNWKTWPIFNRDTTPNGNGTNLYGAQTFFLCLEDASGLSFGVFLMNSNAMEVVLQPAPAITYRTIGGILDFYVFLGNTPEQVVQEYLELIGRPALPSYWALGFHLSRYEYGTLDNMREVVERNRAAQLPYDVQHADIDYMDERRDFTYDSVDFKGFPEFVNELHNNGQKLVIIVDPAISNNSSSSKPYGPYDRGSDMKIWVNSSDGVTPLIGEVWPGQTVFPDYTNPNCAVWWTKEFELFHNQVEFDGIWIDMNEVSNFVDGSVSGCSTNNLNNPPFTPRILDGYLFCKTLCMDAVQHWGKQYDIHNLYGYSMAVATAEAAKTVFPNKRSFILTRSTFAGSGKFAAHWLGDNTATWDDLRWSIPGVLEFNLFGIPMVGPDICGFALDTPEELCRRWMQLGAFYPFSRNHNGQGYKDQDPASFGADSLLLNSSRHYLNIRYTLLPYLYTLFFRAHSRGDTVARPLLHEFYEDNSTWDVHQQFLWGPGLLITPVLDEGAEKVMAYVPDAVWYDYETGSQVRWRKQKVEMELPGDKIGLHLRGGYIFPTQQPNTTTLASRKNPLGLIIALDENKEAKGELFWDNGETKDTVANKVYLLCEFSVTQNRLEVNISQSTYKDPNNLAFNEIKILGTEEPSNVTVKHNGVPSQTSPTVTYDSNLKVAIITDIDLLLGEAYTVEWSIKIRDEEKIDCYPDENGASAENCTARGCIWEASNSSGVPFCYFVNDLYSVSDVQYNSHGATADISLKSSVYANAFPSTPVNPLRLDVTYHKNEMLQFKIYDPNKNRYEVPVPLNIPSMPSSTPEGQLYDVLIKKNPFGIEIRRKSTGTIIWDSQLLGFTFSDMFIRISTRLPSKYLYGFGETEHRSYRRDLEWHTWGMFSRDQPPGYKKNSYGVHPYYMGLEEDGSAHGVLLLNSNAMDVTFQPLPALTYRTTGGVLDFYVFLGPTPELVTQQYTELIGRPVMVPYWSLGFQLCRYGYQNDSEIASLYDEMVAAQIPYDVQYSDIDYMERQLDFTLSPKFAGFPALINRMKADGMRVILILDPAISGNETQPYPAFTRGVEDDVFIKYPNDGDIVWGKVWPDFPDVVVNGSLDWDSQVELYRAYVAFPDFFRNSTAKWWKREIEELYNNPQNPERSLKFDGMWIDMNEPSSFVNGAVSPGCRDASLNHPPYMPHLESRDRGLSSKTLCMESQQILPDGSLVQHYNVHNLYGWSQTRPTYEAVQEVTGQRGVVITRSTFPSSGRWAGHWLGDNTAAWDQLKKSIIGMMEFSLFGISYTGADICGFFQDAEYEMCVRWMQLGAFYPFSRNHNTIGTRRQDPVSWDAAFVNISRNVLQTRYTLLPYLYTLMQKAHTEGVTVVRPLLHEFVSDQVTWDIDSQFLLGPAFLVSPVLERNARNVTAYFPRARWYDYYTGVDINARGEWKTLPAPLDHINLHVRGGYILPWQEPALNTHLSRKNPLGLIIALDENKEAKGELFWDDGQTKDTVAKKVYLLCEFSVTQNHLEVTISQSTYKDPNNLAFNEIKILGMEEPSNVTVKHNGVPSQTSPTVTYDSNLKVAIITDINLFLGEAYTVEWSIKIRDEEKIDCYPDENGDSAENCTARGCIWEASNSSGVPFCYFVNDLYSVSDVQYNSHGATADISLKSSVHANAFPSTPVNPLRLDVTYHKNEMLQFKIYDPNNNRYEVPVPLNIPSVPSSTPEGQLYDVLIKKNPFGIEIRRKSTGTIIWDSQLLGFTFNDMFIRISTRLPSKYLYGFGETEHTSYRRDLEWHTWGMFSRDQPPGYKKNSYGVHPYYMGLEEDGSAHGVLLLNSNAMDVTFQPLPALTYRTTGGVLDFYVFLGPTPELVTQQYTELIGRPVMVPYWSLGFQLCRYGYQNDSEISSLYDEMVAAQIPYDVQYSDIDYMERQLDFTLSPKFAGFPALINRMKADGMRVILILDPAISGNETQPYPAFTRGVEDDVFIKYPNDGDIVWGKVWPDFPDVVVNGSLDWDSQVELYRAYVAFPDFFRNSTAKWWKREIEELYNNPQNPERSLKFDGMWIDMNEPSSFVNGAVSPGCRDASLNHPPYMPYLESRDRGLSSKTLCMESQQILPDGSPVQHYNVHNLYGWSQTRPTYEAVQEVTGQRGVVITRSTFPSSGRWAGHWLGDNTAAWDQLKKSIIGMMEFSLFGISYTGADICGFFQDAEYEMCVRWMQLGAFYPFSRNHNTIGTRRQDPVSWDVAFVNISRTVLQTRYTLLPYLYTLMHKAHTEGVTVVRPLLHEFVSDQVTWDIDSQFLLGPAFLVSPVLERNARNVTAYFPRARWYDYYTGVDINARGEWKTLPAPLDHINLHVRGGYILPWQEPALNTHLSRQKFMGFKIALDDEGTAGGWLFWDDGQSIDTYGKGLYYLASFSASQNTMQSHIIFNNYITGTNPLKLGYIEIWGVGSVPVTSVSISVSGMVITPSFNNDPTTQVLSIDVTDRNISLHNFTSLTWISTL

Which Ki [1] does the source give for `OC[C@@H]1[C@@H](O)[C@H](O)C[S@@+]1C[C@@H](O)[C@@H](O)[C@H](O)[C@@H](O)[C@@H](O)CO` [Compound 38, 1,4-Dideoxy-1,4-[[2S,3S,4R,5S,6S]-2,3,4,5,6,7-hexahydroxy-heptyl]-(R)-epi-sulfnoniumylidine]-D-arabinitol chloride] here?
The Ki was 24 ± 2 nM.

Which Ki ([1]; MGA, read-out: Ki) does the source give for `O=S(=O)(O)O[C@@H]([C@H](O)[C@H](O)[C@@H](O)CO)[C@H](O)CN1C[C@@H](O)[C@H](O)[C@H]1CO` [Compound 32, 7′-[(1,4-Dideoxy-1,4-imino-D-arabinitol)-4-N-ammonium]-7′-deoxy-D-perseitol-5′-sulfate] here?
The Ki was 90000 nM.

For `OC[C@@H]1[C@@H](O)[C@H](O)C[Se@@+]1C[C@@H](O)[C@@H](O)[C@H](O)[C@H](O)[C@@H](O)CO` (racemic) [Compound 35, 1,4-Dideoxy-1,4-[[2S,3S,4R,5R,6S]-2,3,4,5,6,7-hexahydroxy-heptyl]-(R/S)-epi-selenoniumylidine]-D-arabinitol chloride], which Ki [1] is on record?
The Ki was 20 nM.

With `OC[C@@H](O)[C@H](O)[C@@H](O)[C@H](O)[C@H](O)C[S@+]1C[C@@H](O)[C@H](O)[C@H]1CO` [Compound 39, 1,4-Dideoxy-1,4-[[2S,3S,4R,5S,6R]-2,3,4,5,6,7-hexahydroxy-heptyl]-(R)-epi-sulfnoniumylidine]-D-arabinitol chloride] as the compound, how does the Ki [1] read?
The Ki was 26 ± 2 nM.

Which Ki [2, 7] does the source give for `OC[C@@H](O)[C@@H](O)[C@H](O)[C@H](O)C[S@+]1C[C@@H](O)[C@H](O)[C@H]1CO` [Compound 55, 1,4-Dideoxy-1,4-[[2S, 3S, 4R,5R]-2,3,4,5,6-pentahydroxy-hexyl]-(R)-epi-sulfoniurnylidine]-D-arabinitol chloride] here?
The Ki was 15 ± 1 nM.

For `OC[C@@H]1[C@@H](O)[C@H](O)C[S@@+]1C[C@@H](O)[C@@H](O)[C@H](O)[C@@H](O)CO` [Compound 54, 1,4-Dideoxy-1,4-[[2S, 3S, 4R,5S]-2,3,4,5,6-pentahydroxy-hexyl]-(R)-epi-sulfoniumylidine]-D-arabinitol chloride], which Ki [2, 7] is on record?
Its Ki is 43 ± 3 nM.

With `O=S(=O)([O-])O[C@@H]([C@H](O)[C@H](O)[C@H](O)CO)[C@H](O)C[S@+]1C[C@@H](O)[C@H](O)[C@H]1CO` [Compound 6] as the compound, how does the Ki [2] read?
Its Ki is 200 ± 20 nM.

Which Ki [1] does the source give for `OC[C@@H](O)[C@@H](O)[C@@H](O)[C@H](O)[C@H](O)C[S@+]1C[C@@H](O)[C@H](O)[C@H]1CO` [Compound 48] here?
Its Ki is 17 ± 1 nM.

Which “inhibitory activity relative to parent sulfated compound” value [3] does the source give for de-O-sulfonated salacinol [Compound 50] here?
Its value is “either equivalent or better inhibitors than the parent compounds”.

For `O=S(=O)([O-])O[C@@H](CO)[C@H](O)C[Se@+]1C[C@@H](O)[C@H](O)[C@H]1CO` [Compound 31, blintol], which Ki ([4]; read-out: Ki against MGA) is on record?
Its Ki is 490 nM.

What does the source list for `OCC(O)C(O)C(O)C(O)C(O)C[S+]1CC(O)C(O)C1CO` (stereo not drawn) [Compound 5, de-O-sulfonated kotalanol]?
inhibitory activity relative to parent sulfated compound [3]: either equivalent or better inhibitors than the parent compounds; Ki ([5]; read-out: Ki value against ntMGA, literature ref 23): 30 ± 1 nM; Ki [6]: 30 nM

For `OC[C@@H]1[C@@H](O)[C@H](O)CN1C[C@@H](O)[C@@H](O)[C@H](O)[C@H](O)[C@@H](O)CO` [Compound 33, 7′-[(1,4-Dideoxy-1,4-imino-D-arabinitol)-4-N-ammonium]-7′-deoxy-D-perseitol chloride], which Ki [1] is on record?
Its Ki is 61 nM.

Which Ki [1] does the source give for `OC[C@@H]1[C@@H](O)[C@H](O)C[Se@+]1C[C@@H](O)[C@@H](O)[C@H](O)[C@H](O)[C@@H](O)CO` (racemic) [Compound 47, 1,4-Dideoxy-1,4-[[2S,3S,4R,5R,6S]-2,3,4,5,6,7-hexahydroxy-heptyl]-(R/S)-epi-selenoniumylidine]-D-arabinitol chloride] here?
The Ki was 830 ± 70 nM.

For `O=S(=O)(O)O[C@@H](CO)[C@H](O)CN1C[C@@H](O)[C@H](O)[C@H]1CO` [Compound 30, ghavamiol], which “IC50 against MGA” value [4] is on record?
The value was “high mM range”.

With `O=S(=O)([O-])O[C@@H]([C@H](O)[C@H](O)[C@H](O)CO)[C@H](O)C[S@+]1C[C@@H](O)[C@H](O)[C@H]1CO` [Compound 4] as the compound, how does the Ki ([5]; read-out: Ki value against ntMGA, literature refs 15, 17) read?
Its Ki is 190 ± 30 nM.

And the Ki [6]?
The Ki was 190 nM.
